How the values were obtained:
HeLa cells = test: Cellular growth inhibition assay (CellTiter-Glo), HeLa cells; assay type: cell-based; conditions: Homo sapiens, 72 h; HeLa cells, three days of compound treatment, CellTiter-Glo 2.0; read-out: CTG HELA GI50
Description: (§1) HEK293 and HeLa cells were cultured in DMEM medium supplemented with 10% fetal bovine serum and 1% Penn/Strep. Cells were seeded in white 384-well plates at 500 cells/well in […] complete medium. Following seeding, plates were spun at 300×g for three minutes and cultured at 37° C. with 5% CO2 in a humidified tissue culture incubator.
(§2) After 24 hours, compounds were titrated in 100% DMSO and diluted in complete cell culture medium. […] of compound/media mixture was added to cells to bring total volume in well to […]. DMSO alone was used as a negative control. Plates were then spun at 300×g for three minutes and stored at 37° C. with 5% CO2 for three days.
(§3) On Day 0 and Day 3 of compound treatment, cell viability was quantified with CellTiter-Glo 2.0 reagent (Promega). After equilibrating microplates at room temperature for 30 minutes, 25 μL CellTiter-Glo 2.0 reagent was dispensed into each well to bring total volume to […]. Plates were mixed on shaker for 2 minutes at 500 rpm, followed by a 10-minute incubation at room temperature. Following a quick spin, luminescence readings were measured with an En Vision Plate Reader. Data was normalized to DMSO treated Day 0 and Day 3 readings. A four-parameter non-linear regression curve fit was applied to dose-response data in GraphPad Prism data analysis software to determine the half maximal growth inhibitory concentration (GI50) for each compound.

HEK293 cells = test: Cellular growth inhibition assay (CellTiter-Glo), HEK293 cells; assay type: cell-based; conditions: Homo sapiens, 72 h; HEK293 cells, three days of compound treatment, CellTiter-Glo 2.0; read-out: CTG HEK293 GI50
Description: as §1, §2, §3

Compound | GI50 (HeLa cells) | GI50 (HEK293 cells)
CN(CCNS(=O)(=O)c1cc(F)cc(N(C(=O)[C@@H]2CCC(=O)N2c2cc(C#N)ccn2)[C@H](C(=O)NC2CC(F)(F)C2)c2ccccc2Cl)c1)C(=O)N1N=C(c2cc(F)ccc2F)SC1(CCCN)c1ccccc1 (stereo partly drawn) [Compound I-112, 2-(3-aminopropyl)-N-[2-[[3-[[(1S)-1-(2-chlorophenyl)-2-[(3,3-difluorocyclobutyl)amino]-2-oxo-ethyl]-[(2S)-1-(4-cyano-2-pyridyl)-5-oxo-pyrrolidine-2-carbonyl]amino]-5-fluoro-phenyl]sulfonylamino]ethyl]-5-(2,5-difluorophenyl)-N-methyl-2-phenyl-1,3,4-thiadiazole-3-carboxamide] | 0.5 to 1.5 µM | 1.5 to 5 µM
CCNC(=O)C[C@@H]1N=C(c2ccc(OCCOCCOCCOCCOCC(=O)N3CC(=O)N(c4cc(C#N)ccn4)[C@H](C(=O)N(c4cc(F)cc(F)c4)[C@H](C(=O)NC4CC(F)(F)C4)c4ccccc4Cl)C3)cc2)c2c(sc(C)c2C)-n2c(C)nnc21 [Compound I-106, (2S)—N-[(1S)-1-(2-chlorophenyl)-2-[(3,3-difluorocyclobutyl)amino]-2-oxo-ethyl]-1-(4-cyano-2-pyridyl)-N-(3,5-difluorophenyl)-4-[2-[2-[2-[2-[2-[4-[(9S)-9-[2-(ethylamino)-2-oxo-ethyl]-4,5,13-trimethyl-3-thia-1,8,11,12-tetrazatricyclo[8.3.0.0^2,6]trideca-2 (6),4,7, 10,12-pentaen-7-yl]phenoxy]ethoxy]ethoxy]ethoxy]ethoxy]acetyl]-6-oxo-piperazine-2-carboxamide] | > 5 µM | > 5 µM
C=CC(=O)N1CCN([C@@H](CC2CC2)c2ccc([C@H](C)Nc3ncc4c(n3)N(CCOCCOCCOCCOCCOCCOCCOCCOCCON(C)C(=O)N3N=C(c5cc(F)ccc5F)SC3(CCCN)c3ccccc3)C(=O)OC4)cc2)CC1 (stereo partly drawn) [Compound I-61] | 0.5 to 1.5 µM | 1.5 to 5 µM
CCc1cnn2c(NCc3ccc(=O)n(CCOCCOCCCc4cc(-c5cnc([C@H](C)Nc6nccc(N7C(=O)OC[C@@H]7[C@H](C)F)n6)cc5C)cc(C(F)(F)F)n4)c3)cc(N3CCCC[C@H]3CCO)nc12 [Compound I-100, (4R)-3-[2-[[(1S)-1-[5-[2-[3-[2-[2-[5-[[3-ethyl-5-[(2S)-2-(2-hydroxyethyl)-1-piperidyl]pyrazolo[1,5-a]pyrimidin-7-yl]aminomethyl]-2-oxo-1-pyridyl]ethoxy]ethoxy]propyl]-6-(trifluoromethyl)-4-pyridyl]-4-methyl-2-pyridyl]ethyl]amino]pyrimidin-4-yl]-4-[(1S)-1-fluoroethyl]oxazolidin-2-one] | < 0.5 µM | < 0.5 µM
CCc1cnn2c(NCc3ccc(OCCOCCOCCOCCOCCOCCOCCN(C)C/C=C/C(=O)N4CCC[C@@H](n5nc(-c6ccc(Oc7ccccc7)cc6)c6c(N)ncnc65)C4)nc3)cc(N3CCCC[C@H]3CCO)nc12 [Compound I-46] | 1.5 to 5 µM | 1.5 to 5 µM
C[C@@H](Nc1ccc(C#N)n(C)c1=O)c1cc2cc(Cl)c(C3CC(OCCOCCOCCOCCOCCN(C)C(=O)N4N=C(c5cc(F)ccc5F)SC4(CCCN)c4ccccc4)C3)cc2[nH]c1=O (stereo partly drawn) [Compound I-111, 2-(3-aminopropyl)-N-[2-[2-[2-[2-[2-[3-[6-chloro-3-[(1R)-1-[(6-cyano-1-methyl-2-oxo-3-pyridyl)amino]ethyl]-2-oxo-1H-quinolin-7-yl]cyclobutoxy]ethoxy]ethoxy]ethoxy]ethoxy]ethyl]-5-(2,5-difluorophenyl)-N-methyl-2-phenyl-1,3,4-thiadiazole-3-carboxamide] | 0.5 to 1.5 µM | 1.5 to 5 µM
